The source of these data is PMC3818563, “Effect of Iboga Alkaloids on µ-Opioid Receptor-Coupled G Protein Activation” (PLoS ONE, 2013).

Where “and” joins values, the source holds several entries; their conditions need not be identical. Identical values can stand only once. Entries after “also recorded” stand apart in the source; their conditions may differ. Counter-ions that a name gives are not always drawn. Like-named read-outs stand apart in the source and are kept apart here.

For series [1], the system named is μ-opioid receptor (MOR). To be noted: cited from earlier work.
The subject of another series is NMDA receptor. To be noted: cited from earlier work.
Series [2] deals with T1, μ-opioid receptor (MOR) (Rattus norvegicus, UniProt P33535). In words: [35S]GTPγS binding in Sprague-Dawley rat thalamic membranes (Reith lab). The settings on record: for Ki: Antagonist activity Ke (functional Ki), Sprague-Dawley rat thalamic membranes (Reith lab), versus DAMGO (1 µM) as agonist. It is filed as biochemical. Further details: from tissue; host or cells: rat thalamus membranes (Sprague-Dawley; also Fischer F344 in the Janowsky lab).
T1 sequence (P33535 whole entry): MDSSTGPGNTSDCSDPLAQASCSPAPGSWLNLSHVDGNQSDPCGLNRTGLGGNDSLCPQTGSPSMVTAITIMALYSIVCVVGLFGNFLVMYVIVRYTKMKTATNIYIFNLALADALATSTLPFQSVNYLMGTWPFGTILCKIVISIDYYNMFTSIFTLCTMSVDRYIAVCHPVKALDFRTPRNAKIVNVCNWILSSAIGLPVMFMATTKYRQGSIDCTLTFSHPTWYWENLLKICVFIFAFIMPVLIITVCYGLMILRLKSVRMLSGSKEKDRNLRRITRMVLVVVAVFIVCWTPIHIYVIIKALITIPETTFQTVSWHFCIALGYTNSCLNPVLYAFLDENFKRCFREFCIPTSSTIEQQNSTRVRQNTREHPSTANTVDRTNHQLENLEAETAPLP

The nature of series [3]: Solubility of stocks in water. To be noted: thermodynamic from solid.
In another series the target is T2, mouse mMOR (Mus musculus, UniProt P42866).
T2 construct: expressed in transfected cells
T2 sequence (P42866 whole entry): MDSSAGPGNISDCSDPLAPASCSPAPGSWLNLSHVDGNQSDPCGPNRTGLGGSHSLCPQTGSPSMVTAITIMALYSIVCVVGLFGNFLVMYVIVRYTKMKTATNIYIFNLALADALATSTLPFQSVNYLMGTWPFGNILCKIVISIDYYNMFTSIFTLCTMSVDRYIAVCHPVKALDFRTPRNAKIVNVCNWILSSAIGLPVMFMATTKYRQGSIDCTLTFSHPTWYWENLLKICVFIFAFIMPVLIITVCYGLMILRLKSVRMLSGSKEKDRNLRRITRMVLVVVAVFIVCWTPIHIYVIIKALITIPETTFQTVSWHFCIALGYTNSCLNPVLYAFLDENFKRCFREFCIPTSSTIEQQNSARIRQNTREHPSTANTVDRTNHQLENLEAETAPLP
The experiment in a line: [35S]GTPγS binding in mMOR-expressing HEK 293 cells (Reith lab). It is filed as biochemical. (In general: GTPγS is a poorly hydrolysed GTP analogue; its binding reports G protein activation.)

The target of series [4] is T1, μ-opioid receptor (MOR). In words: [35S]GTPγS binding in Sprague-Dawley / Fischer 344 rat thalamic membranes (Janowsky lab). It is filed as biochemical. Also noted: from tissue; host or cells: rat thalamus membranes (Sprague-Dawley; also Fischer F344 in the Janowsky lab).
In series [5] the target is T1, μ-opioid receptor (MOR). In words: [35S]GTPγS binding in Sprague-Dawley rat thalamic membranes (Childers lab). It is filed as biochemical. Also noted: from tissue; host or cells: rat thalamus membranes (Sprague-Dawley; also Fischer F344 in the Janowsky lab).
The next series deals with T3, rat rMOR (Rattus norvegicus, UniProt P33535).
T3 construct: expressed in transfected cells
T3 sequence (P33535 whole entry): as the sequence (P33535 whole entry) above
In words: [35S]GTPγS binding in rMOR-expressing CHO cells (Janowsky lab). It is filed as biochemical. The settings on record: read-out: Agonist activity Emax (%).

The target of series [6] is T1, μ-opioid receptor (MOR). The experiment in a line: In vitro autoradiography of agonist-stimulated [35S]GTPγS binding in rat brain sections (Childers lab). To be noted: noribogaine by itself at concentrations up to 30 µM. It is filed as biochemical. Further details: from tissue.
The target in series [7] is T1, μ-opioid receptor (MOR). Also noted: method as in PMID 9592058. To be noted: rat thalamic membranes, cited from earlier work.
For series [8] the following is noted: estimated; cited from earlier work.
The next series concerns the target T4, human hMOR (Homo sapiens, UniProt P35372).
T4 construct: expressed in transfected cells
The experiment in a line: [35S]GTPγS binding in hMOR-expressing CHO cells (Rothman lab). It is filed as biochemical.

The target of series [9] is mouse µ-opioid receptor (mMOR) (mouse) (UniProt P42866).
mouse µ-opioid receptor (mMOR) (mouse), sequence (P42866 whole entry): as the sequence (P42866 whole entry) above
Series [10] deals with µ-opioid receptor (MOR) of rat brain (rat (endogenous in rat thalamus and brain sections)) (UniProt P33535).
µ-opioid receptor (MOR) of rat brain (rat (endogenous in rat thalamus and brain sections)), sequence (P33535 whole entry): as the sequence (P33535 whole entry) above
Series [11] deals with rat µ-opioid receptor (rMOR), recombinant (rat) (UniProt P33535).
rat µ-opioid receptor (rMOR), recombinant (rat), sequence (P33535 whole entry): as above
For series [12], the target named is µ-opioid receptor (MOR) of rat brain (rat (endogenous in rat thalamus and brain sections)) (UniProt P33535). The source holds these as a separate data set.
For the next series, the system named is α2 receptor. To be noted: cited from earlier work.
[13] abbreviates: Sprague-Dawley rat thalamic membranes, concentrations up to 100 µM.
Setting [14] is: read-out: Agonist activity Emax (%).
The mark [15] stands for this setting: concentrations up to 10^-5 M, Janowsky lab procedures or procedures of Pablo and Mash.

A word on the IC50: it is the concentration at which inhibition is half-maximal. The low end stands for higher potency, the high end for lower potency. For orientation: Ki means the equilibrium dissociation constant of an inhibitor or competing ligand from its target. As a reminder, the solubility is how much of the substance goes into solution per volume. A low value points to a poorly soluble substance. The term EC50 denotes the concentration at which the effect is half-maximal.

T4 sequence (P35372 whole entry): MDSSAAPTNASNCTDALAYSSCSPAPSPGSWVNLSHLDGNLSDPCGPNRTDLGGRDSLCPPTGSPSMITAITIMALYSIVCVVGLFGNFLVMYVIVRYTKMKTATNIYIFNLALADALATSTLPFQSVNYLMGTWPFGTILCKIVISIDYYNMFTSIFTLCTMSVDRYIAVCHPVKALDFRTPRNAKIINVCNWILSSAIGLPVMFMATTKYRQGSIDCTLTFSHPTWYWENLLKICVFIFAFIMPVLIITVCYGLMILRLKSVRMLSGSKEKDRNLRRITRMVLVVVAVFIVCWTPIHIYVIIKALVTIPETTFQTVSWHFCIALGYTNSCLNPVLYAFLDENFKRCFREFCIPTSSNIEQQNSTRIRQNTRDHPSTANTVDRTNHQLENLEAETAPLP

As for `COCC[C@H]1CC2CN3CCc4c([nH]c5ccccc45)[C@](C(=O)OC)(C2)[C@H]13` [18-MC, 18-methoxycoronaridine], the “affinity for the μ-opioid receptor (MOR)” value in the series with μ-opioid receptor (MOR) [1] is “low micromolar range”. Also, in the series with NMDA receptor, the “affinity for the NMDA receptor” value is given as “lacks significant affinity”. This molecule showed an IC50 on μ-opioid receptor (MOR) [2] of 83.3 ± 19.4 µM. The Ki on μ-opioid receptor (MOR) [2] was 13 µM and 13.2 µM; on mouse mMOR, 19.1 ± 2.97 µM. In addition, the “stimulation of [35S]GTPγS binding” value at μ-opioid receptor (MOR) [2] (setting [13]) is listed as “no significant stimulation; also recorded: no efficacy”; on μ-opioid receptor (MOR) [4] (setting [15]), “did not stimulate”. Further, the solubility in series [3] was ≥ 1000 µM. On mouse mMOR, the EC50 is 3.42 ± 2.2 µM. Also, the Emax at mouse mMOR (setting [14]) amounted to 19 ± 4%.
Consider `C[C@@H](NC(=O)[C@@H](N)Cc1ccc(O)cc1)C(=O)NCC(=O)N(C)[C@@H](Cc1ccccc1)C(=O)NCCO` [DAMGO, [D-Ala^2, N-MePhe^4, Gly-ol]-enkephalin, reference compound], for which the Emax at μ-opioid receptor (MOR) [5] (setting [14]) came out at 100%; on rat rMOR, 100%; at μ-opioid receptor (MOR) [2] (setting [14]), 100%; at mouse mMOR (read-out: maximal stimulation of [35S]GTPγS binding over basal) it was 257 ± 12%; at μ-opioid receptor (MOR) [4] (setting [14]), 100%. For the same molecule, the “maximal level of stimulation of [35S]GTPγS binding over basal” value on μ-opioid receptor (MOR) [2] (Sprague-Dawley rat thalamic membranes) turned out to be 214 ± 6%.
Turning to `CC[C@H]1C[C@@H]2C[C@H]3c4[nH]c5ccc(O)cc5c4CCN(C2)[C@@H]13` [Noribogaine, Noribogaine HCl], the “effect on [35S]GTPγS binding in any brain region” value at μ-opioid receptor (MOR) [6] was “had no effect”. For the same molecule, on μ-opioid receptor (MOR) [5] (Sprague-Dawley rat thalamic membranes (Childers lab), noribogaine up to 10 µM), the “inhibition of the stimulation evoked by 1 µM DAMGO” value is on record as “did not inhibit”. Moreover, the “effect on [35S]GTPγS binding by itself” value at μ-opioid receptor (MOR) [5] (concentrations up to 30 µM) is reported as “did not have any effect”. Besides, the “affinity for the μ-opioid receptor (MOR)” value with μ-opioid receptor (MOR) [1] is recorded as “low micromolar range”. The “agonist classification by naloxone-sensitive stimulation of [35S]GTPγS binding” value at μ-opioid receptor (MOR) [7] is listed as “full MOR agonist”. Besides, the EC50 at μ-opioid receptor (MOR) [7] (read-out: EC50 for stimulating [35S]GTPγS binding) was 0.324 µM; at mouse mMOR, 7.42 ± 1.3 µM. Besides, the “half-life relative to parent compound” value in series [8] is given as “considerably longer than that of the parent compound”. Further, the Ki at human hMOR is 1.48 ± 0.25 µM; at μ-opioid receptor (MOR) [2], 13 µM and 13.3 µM; at mouse mMOR, 38.3 ± 1.71 µM. On μ-opioid receptor (MOR) [2], the IC50 was 84 ± 27.8 µM. Also, the “stimulation of [35S]GTPγS binding” value is “no significant stimulation; also recorded: no efficacy” on μ-opioid receptor (MOR) [2] (setting [13]) and “did not stimulate” on μ-opioid receptor (MOR) [4] (setting [15]). Further, the solubility in series [3] was ≥ 1000 µM. For the same molecule, at mouse mMOR (setting [14]), the Emax worked out at 36 ± 6%.
Turning to “DAMGO ([D-Ala^2, N-MePhe^4, Gly-ol]-enkephalin) (peptide)”, in series [9], the maximal stimulation of [35S]GTPγS binding over basal, HEK 293-mMOR cell membranes (Reith lab) came to 257 % over basal. Moreover, the maximal stimulation of [35S]GTPγS binding over basal, Sprague-Dawley rat thalamic membranes (Reith lab) in [10] worked out at 214 % over basal. Moreover, the EC50 of stimulation of [35S]GTPγS binding, CHO rMOR cell membranes (Janowsky lab) in [11] stood at 0.034 µM. In series [12], this molecule gave an EC50 of stimulation of [35S]GTPγS binding, Sprague-Dawley and Fischer 344 rat thalamic membranes (Janowsky lab) of 0.122 µM; an EC50 of stimulation of [35S]GTPγS binding, Sprague-Dawley rat thalamic membranes (Childers lab) of 0.21 µM; an EC50 of stimulation of [35S]GTPγS binding, Sprague-Dawley rat thalamic membranes (Reith lab) of 0.238 µM.
For Ibogaine HCl, the “affinity for the α2 receptor” value with α2 receptor is on record as “no significant affinity”. Further, the “affinity for the μ-opioid receptor (MOR)” value in the series on μ-opioid receptor (MOR) [1] is “low micromolar range”. Further, the “stimulation of [35S]GTPγS binding” value at μ-opioid receptor (MOR) [7] (100 µM ibogaine) was ~20%; at μ-opioid receptor (MOR) [7] (concentrations of 100 µM to 1 mM) it was 20-30%; at μ-opioid receptor (MOR) [2] it was “no significant stimulation”; on μ-opioid receptor (MOR) [4], “did not stimulate”.
